Converted amounts (≈) assume the structure as drawn. Read-outs that look alike come from different tables or passages of the source.
What was measured:
[1] = test system: Staphylo-coccus spp.; experiment: organism not typed; type: cell-based
[2] = test system: RVFV strain MP-12; experiment: microbe, parasite or virus in culture; type: cell-based, Rift Valley fever virus
[3] = test system: C. neoformans; experiment: microbe, parasite or virus in culture; type: cell-based; conditions: for MIC80: Cryptococcus neoformans, read-out: C. neoformans (MIC80, μM)
[4] = test system: E. coli; experiment: microbe, parasite or virus in culture; type: cell-based
[5] = test system: RVFV MP-12; experiment: microbe, parasite or virus in culture; type: cell-based, Rift Valley fever virus; conditions: read-out: Estimated EC50
[6] = target: T1, Human RNase H1 (Homo sapiens, UniProt O60930); experiment: biochemical
T1 construct: made in house; host or cells: E. coli
T1 sequence (O60930 1-286): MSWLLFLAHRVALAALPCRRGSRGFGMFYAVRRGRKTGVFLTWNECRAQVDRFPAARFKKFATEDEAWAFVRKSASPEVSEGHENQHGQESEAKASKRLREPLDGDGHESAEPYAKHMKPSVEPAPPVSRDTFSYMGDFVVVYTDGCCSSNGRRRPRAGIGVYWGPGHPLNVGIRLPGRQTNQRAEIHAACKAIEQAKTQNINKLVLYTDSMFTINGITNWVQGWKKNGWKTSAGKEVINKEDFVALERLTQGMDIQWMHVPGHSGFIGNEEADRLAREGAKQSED

[7] = test system: Vero cells
[8] = test system: ZIKV; experiment: microbe, parasite or virus in culture; type: cell-based, Zika virus; conditions: read-out: ZIKV EC50
[9] = test system: HepDES19
[10] = test system: RVFV strain MP-12; experiment: microbe, parasite or virus in culture; type: cell-based, Rift Valley fever virus; conditions: read-out: A549 EC50
[11] = test system: A549 cells
[12] = test system: LACV; experiment: microbe, parasite or virus in culture; type: cell-based, La Crosse virus; conditions: read-out: LACV EC50
[13] = in vitro; conditions: African green monkey
[14] = read-out: Human RNase H1 (IC50)
[15] = Rift Valley fever virus, Vero, 24 h
[16] = Rift Valley fever virus, Vero, read-out: Vero EC50
[17] = Rift Valley fever virus, A549, 24 h
[18] = La Crosse virus, Vero C1008, 24 h

| Compound | Staphylo-coccus spp. (MIC80, μM) [1] | EC50 ([2]; read-out: EC50) | C. neoformans (MIC80, μM) [3] | EC50 [5] | IC50 [6, 14] | EC50 ([2]; read-out: Vero EC50) | CC50 [7] | EC50 [8] | CC50 [9] | EC50 [10] | CC50 [11] | EC50 [12] | further results |
| --- | --- | --- | --- | --- | --- | --- | --- | --- | --- | --- | --- | --- | --- |
| Cc1cc(O)c(=O)c(O)cc1C(=O)c1ccccc1O [Compound 311] | 67 µM | 11.8 µM | 15 µM | 3.16 µM | 26 µM |  |  |  |  |  |  |  | E. coli (MIC80, μM) [4]: 30 µM |
| CC(=O)c1c(C)cc(O)c(=O)c(O)c1Br [Compound 320] |  | 34 µM | 49 µM | 2 µM | 37 µM | 34 µM | > 120 µM | > 120 µM | 49.5 µM | 90.3 µM | 154 µM | > 120 µM |  |
| O=C1C=CC(=O)c2ccccc21 [Compound 327] |  | 39.7 µM | 9.1 µM | 2 µM | 47 µM | 39.7 µM |  | > 120 µM | 18.5 µM | 19.6 µM | 27.5 µM | 12.7 µM |  |
| CC(=O)c1c(C)cc(O)c(=O)c(O)c1-c1ccccc1 [Compound 330] | 44 µM | 10.4 µM | 4.0 µM | 2 µM | 476 µM | 10.4 µM | > 120 µM | 32.7 µM | 56.2 µM | 42.6 µM | > 240 µM | > 120 µM |  |
| CC(=O)c1c(C)cc(O)c(=O)c(O)c1-c1cccc2ccccc12 [Compound 331] | 67 µM | 15.8 µM | 11 µM | 2 µM | 448 µM | 15.8 µM | 80.4 µM |  | 36.6 µM | 17.7 µM | > 240 µM |  |  |
| COC(=O)c1c(C)cc(O)c(=O)c(O)c1Br [Compound 335] |  | 40.8 µM | 50 µM | 3 µM | 111 µM | 40.8 µM | > 120 µM | > 120 µM |  | > 120 µM | 96.2 µM | > 120 µM | EC50 ([2]; read-out: RVFV (EC50)): 40.8 µM |
| Cc1cc(O)c(=O)c(O)cc1C(=O)c1ccc(Br)cc1 [Compound 358] |  |  | 11 µM |  | 43 µM |  | > 120 µM |  | 12.5 µM |  |  |  | EC50 ([2]; read-out: RVFV (EC50)): 9 µM; E. coli (MIC80, μM) [4]: 20 µM |
| Cc1cc(O)c(=O)c(O)cc1C(=O)NCc1ccccc1 [Compound 388] | 67 µM |  | 11 µM | 19 µM | 166 µM |  | > 120 µM |  | 19.8 µM |  |  |  | EC50 ([2]; read-out: RVFV (EC50)): 9 µM; E. coli (MIC80, μM) [4]: 67 µM |
| Cc1cc(O)c(=O)c(O)cc1C(=O)N1CCCCC1 [Compound 390] |  | 11.9 µM | 11 µM | 0.1 µM | 106 µM | 11.9 µM | > 120 µM | > 120 µM | 29.8 µM | 9.4 µM | 224 µM | > 120 µM |  |
| CC(=Nc1ccc(C(F)(F)F)cc1)c1c(C)cc(=O)n(O)c1O [Compound 517] |  |  | 24 µM | 13 µM | 135 µM | > 120 µM | > 120 µM | > 120 µM | 91 µM | 95.8 µM | 71.8 µM | > 120 µM |  |
| CCc1cccc(N=C(C)c2c(C)cc(=O)n(O)c2O)c1 [Compound 518] | 67 µM | 19.5 µM | 24 µM | 7 µM | 436 µM | 20 µM | > 120 µM | > 120 µM | 91.4 µM | 17.2 µM | 16.5 µM | > 120 µM |  |
| CC(=Nc1ccccc1Cl)c1c(C)cc(=O)n(O)c1O [Compound 668] |  | 19.2 µM |  | 11 µM | 165 µM | 19.2 µM | > 120 µM | > 120 µM | 76.8 µM | 35.7 µM | 82 µM | > 120 µM |  |
| C/C(=N\c1ccc(Cl)c(Cl)c1)c1c(C)cc(O)n(O)c1=O [Compound 670] |  |  |  |  |  |  |  |  |  |  |  |  | CC50 ([13]; CC50): > 120 µM; EC50 [2, 15]: 14 µM; EC50 [2, 16]: 14 µM; CC50 ([7]; African green monkey): > 120 µM; EC50 ([8]; Zika virus, Vero C1008, 48 h): > 120 µM; MIC80 [3]: 69 µM (≈ 22.6 µg/mL); EC50 ([5]; Rift Valley fever virus, Vero): 10 µM; EC50 [10, 17]: 15.3 µM; EC50 [12, 18]: > 120 µM; IC50 [6]: 356 µM |
| CC[C@H](C)[C@H](NC(=O)OCC1c2ccccc2-c2ccccc21)C(=O)Sc1cccccc1=O [Compound 686] | 30 µM |  | 0.85 µM | 2.16 µM | > 500 µM | 6.3 µM | > 120 µM | > 120 µM | 42.6 µM | 7.9 µM | 67.6 µM | 45.4 µM |  |
| O=c1c(O)cccc(S(=O)(=O)c2cccc3ccccc23)c1O [Compound 698] | 20 µM | 11.7 µM | 38 µM | 8 µM | 261 µM |  |  |  | 13.7 µM |  |  |  | E. coli (MIC80, μM) [4]: 44 µM |
| O=c1c(O)cccc(SCCc2ccccc2)c1O [Compound 704] | 20 µM | 14.3 µM | 1.8 µM | 14 µM | 25 µM | 14.3 µM | > 120 µM | 19.5 µM | 21.6 µM | 20 µM | 43 µM | 89.2 µM |  |
| CCCCCCSc1cccc(O)c(=O)c1O [Compound 840] |  | 31.6 µM | 1.0 µM | 14 µM | 73 µM | 31.6 µM | > 120 µM | > 120 µM | 21.5 µM | 15.4 µM | 142 µM | > 120 µM |  |
| CCCCNC(=O)c1cc(O)c(=O)c(O)cc1C [Compound 1039] |  |  |  |  |  |  |  |  |  |  |  |  | CC50 ([13]; Vero CC50): > 120 µM; EC50 [2, 15]: 8.9 µM; EC50 [2, 16]: 8.9 µM; CC50 ([7]; African green monkey): > 120 µM; EC50 ([8]; Zika virus, Vero C1008, 48 h): > 120 µM; MIC80 [3]: 12 µM (≈ 3.02 µg/mL); EC50 ([5]; Rift Valley fever virus, Vero): 6 µM; EC50 [10, 17]: 15.5 µM; EC50 [12, 18]: > 120 µM; IC50 [6]: 209 µM |
